In ChEMBL document CHEMBL1131668, “Purin-8-ones as corticotropin-releasing hormone (CRH-R1) receptor antagonists” (Bioorg Med Chem Lett, 1999):
pKi: −log10 of the molar value.

Target: T1, Corticotropin-releasing factor receptor 1 (Homo sapiens, UniProt P34998)
T1 sequence (P34998 whole entry): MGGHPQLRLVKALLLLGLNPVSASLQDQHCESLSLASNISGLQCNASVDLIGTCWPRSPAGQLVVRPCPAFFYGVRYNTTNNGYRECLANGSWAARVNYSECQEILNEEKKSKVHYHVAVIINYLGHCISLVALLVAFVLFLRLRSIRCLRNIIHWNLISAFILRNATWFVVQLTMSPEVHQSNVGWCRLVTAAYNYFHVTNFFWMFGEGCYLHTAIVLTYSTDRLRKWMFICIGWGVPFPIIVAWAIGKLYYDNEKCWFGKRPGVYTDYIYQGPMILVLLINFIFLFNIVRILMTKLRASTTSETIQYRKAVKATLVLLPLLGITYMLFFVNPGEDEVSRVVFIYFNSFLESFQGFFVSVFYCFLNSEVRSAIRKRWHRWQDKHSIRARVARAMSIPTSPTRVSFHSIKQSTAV
Assay: Binding affinity for transfected human Corticotropin releasing factor receptor expressed in HEK 293E cells using [125I]TYR-oCRH as the displaced radioligand
Assay type: cell-based, HEK293

Row | pKi | SMILES
1 | 8.82 | CCCCN(CC)c1nc(C)nc2c1nc(OC)n2-c1ccc(C(C)C)cc1Br
2 | 8.24 | CCCN(CC1CC1)c1nc(C)nc2c1n(C)c(=O)n2-c1ccc(C(C)C)cc1Br
3 | 6.05 | CCCCN(CC)c1nc(C)nc2c1nc(O)n2-c1ccc(C(C)C)cc1Br
4 | 7.82 | CCCCC(CC)Nc1nc(C)nc2c1n(C)c(=O)n2-c1ccc(C(C)C)cc1Br (configuration not stated)
5 | 7.51 | CCCCN(CC)c1nc(C)nc2c1nc(OCC1CC1)n2-c1ccc(C(C)C)cc1Br
6 | 7.32 | CCN(CCOC)c1nc(C)nc2c1n(C)c(=O)n2-c1ccc(C(C)C)cc1Br
7 | 6.95 | CCCN(CC1CC1)c1nc(C)nc2c1n(C)c(=O)n2-c1c(C)cc(C)nc1C
8 | 7.91 | COCCN(CC1CC1)c1nc(C)nc2c1n(C)c(=O)n2-c1ccc(C(C)C)cc1Br
9 | 6.89 | COCCN(CCOC)c1nc(C)nc2c1n(C)c(=O)n2-c1ccc(C(C)C)cc1Br
10 | 6.93 | CCCCN(CC)c1nc(C)nc2c1n(CC1CC1)c(=O)n2-c1ccc(C(C)C)cc1Br
11 | 6.33 | CCCCN(CC)c1nc(C)cc2c1n(C)c(=O)n2-c1ccc(C(C)C)cc1Br
12 | 7.58 | COCCN(Cc1ccccc1)c1nc(C)nc2c1n(C)c(=O)n2-c1ccc(C(C)C)cc1Br
13 | 8.21 | CCCN(CC1CC1)c1nc(C)nc2c1n(C)c(=O)n2-c1c(C)cc(C)cc1C
14 | 6.91 | CCCCN(CC)c1nc(C)nc2c1n(C)c(=O)n2-c1c(C)cc(C)nc1C
15 | 6.59 | CCCN(CCC)c1nc(C)nc2c1n(C)c(=O)n2-c1c(C)cc(C)nc1C
16 | 8.52 | CCCCN(CC)c1cc(C)nc2c1n(C)c(=O)n2-c1ccc(C(C)C)cc1Br
17 | 7.76 | CCCCC(CC)Nc1nc(C)nc2c1n(C)c(=O)n2-c1c(C)cc(C)cc1C (configuration not stated)
18 | 8.12 | CCCN(CCC)c1nc(C)nc2c1n(C)c(=O)n2-c1ccc(C(C)C)cc1Br
19 | 7.37 | CCC(COC)Nc1nc(C)nc2c1n(C)c(=O)n2-c1ccc(C(C)C)cc1Br (configuration not stated)
20 | 6.46 | CCCCN(CC)c1nc(C)nc2c1nc(N1CCOCC1)n2-c1ccc(C(C)C)cc1Br
21 | 6.16 | COCCN(CCOC)c1nc(C)nc2c1n(C)c(=O)n2-c1c(C)cc(C)cc1C
22 | 8.82 | CCCCN(CC)c1nc(C)nc2c1nc(Cl)n2-c1ccc(C(C)C)cc1Br
